{
  "source": "patent US20150005288A1",
  "about": "“SUBSTITUTED PHENYLIMIDAZOPYRAZOLES AND USE THEREOF” (Bayer Intellectual Property GmbH, priority 2012, published 2015)",
  "data": [
    {"target": "T1, intracellular domain of human Tie2 (GST fusion protein) (Homo sapiens, UniProt Q02763)", "T1 construct": "intracellular domain of human Tie2 (amino acids 776-1124); made in house; host or cells: Baculovirus-infected insect cells (Hi5)", "T1 sequence (Q02763 776-1124)": "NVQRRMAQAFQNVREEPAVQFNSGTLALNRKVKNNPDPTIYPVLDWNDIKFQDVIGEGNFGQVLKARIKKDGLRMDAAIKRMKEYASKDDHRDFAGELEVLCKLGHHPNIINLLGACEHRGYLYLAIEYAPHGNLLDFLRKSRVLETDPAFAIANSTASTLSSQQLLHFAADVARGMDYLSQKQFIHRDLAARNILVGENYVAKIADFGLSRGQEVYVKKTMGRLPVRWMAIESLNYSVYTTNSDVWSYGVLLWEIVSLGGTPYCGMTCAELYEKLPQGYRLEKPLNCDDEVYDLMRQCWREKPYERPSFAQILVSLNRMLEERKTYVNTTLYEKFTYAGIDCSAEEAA", "test": "Tie2 kinase assay (Tie2-TR-FRET)", "type": "biochemical", "settings": "ATP concentration 1 mM, in some cases means of several independent determinations", "method_in_brief": "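GST fusion of human Tie2 intracellular domain (aa 776-1124, Hi5-expressed), ~30 ng/ml, pre-incubated 15 min with compound, then 1 mM ATP and 1 μM biotinylated peptide, 60 min at 22 °C, pH 7. TR-FRET (Eu anti-phosphotyrosine/streptavidin-XL665, 665/620 nm ratio). […] 20 μM–0.073 nM in duplicate; IC50 by 4-parameter fit.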", "units": {"IC50": "nM"}, "values": [
      {"smiles": "Cc1ccc(-n2ccn3nc(-c4cccnc4)cc23)cc1NC(=O)c1cccc(S(F)(F)(F)(F)F)c1", "note": "[Example 76, N-{2-Methyl-5-[6-(pyridin-3-yl)-1H-imidazo[1,2-b]pyrazol-1-yl]phenyl}-3-(pentafluoro-λ^6-sulphanyl)benzamide]", "IC50": 82},
      {"smiles": "Cc1ccc(-n2ccn3nc(-c4cccnc4)cc23)cc1NC(=O)c1cc(Br)cc(C(C)(C)C)c1", "note": "[Example 78]", "IC50": 115},
      {"smiles": "Cc1ccc(-n2ccn3nc(-c4cccnc4)cc23)cc1NC(=O)c1cc(C#N)cc(C(C)(C)C)c1", "note": "[Example 79]", "IC50": 26},
      {"smiles": "Cc1c(NC(=O)c2cc(C#N)cc(S(F)(F)(F)(F)F)c2)cccc1-n1ccn2nc(-c3cccnc3)cc12", "note": "[Example 80, 3-Cyano-N-{2-methyl-3-[6-(pyridin-3-yl)-1H-imidazo[1,2-b]pyrazol-1-yl]phenyl}-5-(pentafluoro-λ^6-sulphanyl)benzamide]", "IC50": 725},
      {"smiles": "N#Cc1cc(C(=O)Nc2cccc(-n3ccn4nc(-c5cccnc5)cc34)c2F)cc(S(F)(F)(F)(F)F)c1", "note": "[Example 81, 3-Cyano-N-{2-fluoro-3-[6-(pyridin-3-yl)-1H-imidazo[1,2-b]pyrazol-1-yl]phenyl}-5-(pentafluoro-λ^6-sulphanyl)benzamide]", "IC50": 435},
      {"smiles": "O=C(Nc1cccc(-n2ccn3nc(-c4cccnc4)cc23)c1O)c1cccc(S(F)(F)(F)(F)F)c1", "note": "[Example 82, N-{2-Hydroxy-3-[6-(pyridin-3-yl)-1H-imidazo[1,2-b]pyrazol-1-yl]phenyl}-3-(pentafluoro-λ^6-sulphanyl)benzamide]", "IC50": 250},
      {"smiles": "N#Cc1cc(C(=O)Nc2cccc(-n3ccn4nc(-c5cccnc5)cc34)c2O)cc(S(F)(F)(F)(F)F)c1", "note": "[Example 83, 3-Cyano-N-{2-hydroxy-3-[6-(pyridin-3-yl)-1H-imidazo[1,2-b]pyrazol-1-yl]phenyl}-5-(pentafluoro-λ^6-sulphanyl)benzamide]", "IC50": 110},
      {"smiles": "Cc1ccc(NC(=O)c2cccc(S(F)(F)(F)(F)F)c2)cc1-n1ccn2nc(-c3cnccn3)cc12", "note": "[Example 84, N-{4-Methyl-3-[6-(pyrazin-2-yl)-1H-imidazo[1,2-b]pyrazol-1-yl]phenyl}-3-(pentafluoro-λ^6-sulphanyl)benzamide]", "IC50": 220},
      {"smiles": "Cc1cc(C)c(-n2ccn3nc(-c4cn[nH]c4)cc23)cc1NC(=O)c1cc(C#N)cc(S(F)(F)(F)(F)F)c1", "note": "[Example 86, 3-Cyano-N-{2,4-dimethyl-5-[6-(1H-pyrazol-4-yl)-1H-imidazo[1,2-b]pyrazol-1-yl]phenyl}-5-(pentafluoro-λ^6-sulphanyl)benzamide]", "IC50": 1.1},
      {"smiles": "N#Cc1cc(C(=O)Nc2cccc(-n3ccn4nc(-c5cccnc5)cc34)c2)cc(S(F)(F)(F)(F)F)c1", "note": "[Example 87, 3-Cyano-5-(pentafluoro-λ^6-sulphanyl)-N-{3-[6-(pyridin-3-yl)-1H-imidazo[1,2-b]pyrazol-1-yl]-phenyl}benzamide]", "IC50": 980},
      {"smiles": "Cc1ccc(NC(=O)c2cc(Br)cc(S(F)(F)(F)(F)F)c2)cc1-n1ccn2nc(-c3cccnc3)cc12", "note": "[Example 89, 3-Bromo-N-{4-methyl-3-[6-(pyridin-3-yl)-1H-imidazo[1,2-b]pyrazol-1-yl]phenyl}-5-(pentafluoro-λ^6-sulphanyl)benzamide]", "IC50": 2.3},
      {"smiles": "COc1ccc(S(F)(F)(F)(F)F)cc1C(=O)Nc1ccc(C)c(-n2ccn3nc(-c4cccnc4)cc23)c1", "note": "[Example 90, 2-Methoxy-N-{4-methyl-3-[6-(pyridin-3-yl)-1H-imidazo[1,2-b]pyrazol-1-yl]phenyl}-5-(pentafluoro-λ^6-sulphanyl)benzamide]", "IC50": 91},
      {"smiles": "Cc1ccc(S(F)(F)(F)(F)F)cc1C(=O)Nc1ccc(C)c(-n2ccn3nc(-c4cccnc4)cc23)c1", "note": "[Example 91, 2-Methyl-N-{4-methyl-3-[6-(pyridin-3-yl)-1H-imidazo[1,2-b]pyrazol-1-yl]phenyl}-5-(pentafluoro-λ^6-sulphanyl)benzamide]", "IC50": 215},
      {"smiles": "Cc1ccc(NC(=O)c2cc(C#N)cc(C3(O)CCC3)c2)cc1-n1ccn2nc(-c3cccnc3)cc12", "note": "[Example 92, 3-Cyano-5-(1-hydroxycyclobutyl)-N-{4-methyl-3-[6-(pyridin-3-yl)-1H-imidazo[1,2-b]pyrazol-1-yl]phenyl}benzamide]", "IC50": 29},
      {"smiles": "Cc1ccc(NC(=O)c2cc(C#N)nc(C(C)(C)C)c2)cc1-n1ccn2nc(-c3cccnc3)cc12", "note": "[Example 93, 2-tert-Butyl-6-cyano-N-{4-methyl-3-[6-(pyridin-3-yl)-1H-imidazo[1,2-b]pyrazol-1-yl]phenyl}-isonicotinamide]", "IC50": 19},
      {"smiles": "N#Cc1cc(C(=O)Nc2ccc(C(F)(F)F)c(-n3ccn4nc(-c5cccnc5)cc34)c2)cc(S(F)(F)(F)(F)F)c1", "note": "[Example 95, 3-Cyano-5-(pentafluoro-λ^6-sulphanyl)-N-{3-[6-(pyridin-3-yl)-1H-imidazo[1,2-b]pyrazol-1-yl]-4-(trifluoromethyl)phenyl}benzamide]", "IC50": 350},
      {"smiles": "O=C(Nc1ccc(Cl)c(-n2ccn3nc(-c4cccnc4)cc23)c1)c1cccc(S(F)(F)(F)(F)F)c1", "note": "[Example 96, N-{4-Chloro-3-[6-(pyridin-3-yl)-1H-imidazo[1,2-b]pyrazol-1-yl]phenyl}-3-(pentafluoro-λ^6-sulphanyl)benzamide]", "IC50": 47},
      {"smiles": "N#Cc1cc(C(=O)Nc2ccc(Cl)c(-n3ccn4nc(-c5cccnc5)cc34)c2)cc(S(F)(F)(F)(F)F)c1", "note": "[Example 97, N-{4-Chloro-3-[6-(pyridin-3-yl)-1H-imidazo[1,2-b]pyrazol-1-yl]phenyl}-3-cyano-5-(pentafluoro-λ^6-sulphanyl)benzamide]", "IC50": 9.2},
      {"smiles": "COc1ccc(NC(=O)c2cc(Br)cc(S(F)(F)(F)(F)F)c2)cc1-n1ccn2nc(-c3cccnc3)cc12", "note": "[Example 98, 3-Bromo-N-{4-methoxy-3-[6-(pyridin-3-yl)-1H-imidazo[1,2-b]pyrazol-1-yl]phenyl}-5-(pentafluoro-λ^6-sulphanyl)benzamide]", "IC50": 595},
      {"smiles": "COc1ccc(NC(=O)c2cc(C#N)cc(S(F)(F)(F)(F)F)c2)cc1-n1ccn2nc(-c3cccnc3)cc12", "note": "[Example 99, 3-Cyano-N-{4-methoxy-3-[6-(pyridin-3-yl)-1H-imidazo[1,2-b]pyrazol-1-yl]phenyl}-5-(pentafluoro-λ^6-sulphanyl)benzamide]", "IC50": 240},
      {"smiles": "Cc1cc(NC(=O)c2cccc(S(F)(F)(F)(F)F)c2)cc(-n2ccn3nc(-c4cccnc4)cc23)c1C", "note": "[Example 100, N-{3,4-Dimethyl-5-[6-(pyridin-3-yl)-1H-imidazo[1,2-b]pyrazol-1-yl]phenyl}-3-(pentafluoro-λ^6-sulphanyl)benzamide]", "IC50": 175},
      {"smiles": "Cc1c(F)cc(NC(=O)c2cccc(S(F)(F)(F)(F)F)c2)cc1-n1ccn2nc(-c3cccnc3)cc12", "note": "[Example 103, N-{3-Fluoro-4-methyl-5-[6-(pyridin-3-yl)-1H-imidazo[1,2-b]pyrazol-1-yl]phenyl}-3-(pentafluoro-λ^6-sulphanyl)benzamide]", "IC50": 130},
      {"smiles": "Cc1c(F)cc(NC(=O)c2cc(C#N)cc(S(F)(F)(F)(F)F)c2)cc1-n1ccn2nc(-c3cccnc3)cc12", "note": "[Example 105, 3-Cyano-N-{3-fluoro-4-methyl-5-[6-(pyridin-3-yl)-1H-imidazo[1,2-b]pyrazol-1-yl]phenyl}-5-(pentafluoro-λ^6-sulphanyl)benzamide]", "IC50": 39},
      {"smiles": "Cc1c(Cl)cc(NC(=O)c2cccc(S(F)(F)(F)(F)F)c2)cc1-n1ccn2nc(-c3cccnc3)cc12", "note": "[Example 106, N-{3-Chloro-4-methyl-5-[6-(pyridin-3-yl)-1H-imidazo[1,2-b]pyrazol-1-yl]phenyl}-3-(pentafluoro-λ^6-sulphanyl)benzamide]", "IC50": 110}
    ]}
  ]
}
